Measured values reported in US11802133B2, “Heterocyclic compounds as monoacylglycerol lipase inhibitors” (Hoffmann-La Roche Inc., priority 2018, dated 2023).

Assays:
[1] = molecular target: MAGL (recombinant wild-type) (Homo sapiens (Human), UniProt Q99685); test: 4-NPA assay: MAGL inhibitory activity by hydrolysis of 4-nitrophenylacetate (absorbance at 405 nm); assay type: biochemical; details: measured in 4-NPA assay (footnote [a]); 1 nM MAGL, 300 μM 4-nitrophenylacetate
Method: This assay is hereinafter abbreviated “4-NPA assay”.
The plate was shaked for 1 min at 2000 rpm (Variomag Teleshake) and then incubated for 15 min at RT. […] The final concentrations in the assay were 1 nM MAGL and 300 μM 4-Nitrophenylacetate. […] A second measurement was then done after incubation for 80 min at RT. From the two measurements, the slope was calculated by subtracting the first from the second measurement.

MAGL = MAGL (Homo sapiens (Human), UniProt Q99685); test: 2-AG assay: MAGL inhibitory activity by hydrolysis of 2-arachidonoylglycerol to arachidonic acid (mass spectrometry); assay type: biochemical; details: measured in 2-AG assay (footnote [b]); 8 μM 2-arachidonoylglycerol
Chain of MAGL (Q99685 whole entry, species assumed): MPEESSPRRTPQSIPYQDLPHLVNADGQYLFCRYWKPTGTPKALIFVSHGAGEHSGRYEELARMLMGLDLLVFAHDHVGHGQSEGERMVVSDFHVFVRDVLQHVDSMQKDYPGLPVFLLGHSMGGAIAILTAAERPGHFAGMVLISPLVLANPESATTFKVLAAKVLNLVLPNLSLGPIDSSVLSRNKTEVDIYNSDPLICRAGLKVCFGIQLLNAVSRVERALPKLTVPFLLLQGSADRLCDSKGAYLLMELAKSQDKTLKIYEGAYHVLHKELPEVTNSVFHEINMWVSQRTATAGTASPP

Chain of MAGL (recombinant wild-type) (Q99685 whole entry, species assumed): as above

Structure (SMILES) | IC50 [1] | IC50 (MAGL)
O=C1CO[C@H]2CCN(C(=O)N3CC(COCc4c(F)cccc4C(F)(F)F)C3)C[C@H]2N1 [Example 102] | 22 nM | 
O=C1CO[C@H]2CCN(C(=O)N3CCN(Cc4ccc(C(F)(F)F)cc4)CC3)C[C@H]2N1 (racemic) [Example 21, rac-(4aR,8aS)-6-(4-(4-(Trifluoromethyl)benzyl)piperazine-1-carbonyl)hexahydro-2H-pyrido[4,3-b][1,4]oxazin-3(4H)-one] | 909 nM | 
O=C1CO[C@H]2CCN(C(=O)N3CCC(Cn4cnc(C(F)(F)F)c4)CC3)C[C@H]2N1 [Example 60] | 680 nM | 
O=C1CO[C@H]2CCN(C(=O)N3CCC(COc4ccc(Cl)cc4)C3)C[C@H]2N1 (stereo partly shown) [Example 96] | 293 nM | 
O=C1CO[C@H]2CCN(C(=O)N3CCC(CN4CCC(F)(F)CC4)CC3)C[C@H]2N1 [Example 37, (4aR,8aS)-6-(4-((4,4-Difluoropiperidin-1-yl)methyl)piperidine-1-carbonyl)hexahydro-2H-pyrido[4,3-b][1,4]oxazin-3(4H)-one] | 1300 nM | 
O=C1CO[C@H]2CCN(C(=O)N3CCC(Cc4ccc(C(F)(F)F)cc4)C3)C[C@H]2N1 (stereo partly shown) [Example 100] | 82 nM | 
O=C1CO[C@@H]2CCN(C(=O)N3CCC(Cc4ccc(C(F)(F)F)cc4)CC3)C[C@H]2N1 [Example 19] | 1500 nM | 
O=C1CO[C@H]2CCN(C(=O)N3CCC(F)(COc4ccc(F)cc4Cl)CC3)C[C@H]2N1 [Example 64, (4aR,8aS)-6-(4-((2-Chloro-4-fluorophenoxy)methyl)-4-fluoropiperidine-1-carbonyl)hexahydro-2H-pyrido[4,3-b][1,4]oxazin-3(4H)-one] | 40 nM | 
O=C1CO[C@@H]2CCN(C(=O)N3CCC(COc4ccc(F)cc4F)CC3)C[C@@H]2N1 [Example 49] | 363 nM | 
O=C1CO[C@H]2CCN(C(=O)N3CCC(COc4ccc(C(F)(F)F)cc4F)CC3)C[C@H]2N1 [Example 52] | 58 nM | 
O=C1CO[C@H]2CCN(C(=O)N3CCC(Cc4ccc(OC(F)(F)F)cc4)CC3)C[C@H]2N1 [Example 31] | 49 nM | 
O=C1CO[C@@H]2CCN(C(=O)N3CC(OCc4ccc(C(F)(F)F)cc4F)C3)C[C@@H]2N1 [Example 30] | 273 nM | 
O=C1CO[C@H]2CCN(C(=O)N3CCN(Cc4ccc(Cl)cc4)CC3)C[C@H]2N1 [Example 22] | 2100 nM | 
O=C1CO[C@H]2CCN(C(=O)N3CCC(COc4ccc(Cl)cc4)CC3)C[C@H]2N1 [Example 9] | 35 nM | 
O=C1CO[C@H]2CCN(C(=O)N3CC(Cc4ccc(C(F)(F)F)cc4)C3)C[C@H]2N1 [Example 36] | 119 nM | 
O=C1CO[C@H]2CCN(C(=O)N3CCC(Cc4nc5ccccc5o4)CC3)C[C@H]2N1 [Example 72] | 108 nM | 

Structure (SMILES) | IC50 [1] | IC50 (MAGL)
O=C1CO[C@H]2CCN(C(=O)N3CCC(OCc4ccc(Cl)cc4)C3)C[C@H]2N1 (stereo partly shown) [Example 97] | 146 nM | 
O=C1CO[C@H]2CCN(C(=O)N3CCC(Oc4cccc(C(F)(F)F)c4)CC3)C[C@H]2N1 [Example 44] | 38 nM | 
N#Cc1cc(F)ccc1OCC1CCN(C(=O)N2CC[C@@H]3OCC(=O)N[C@@H]3C2)CC1 [Example 55] | 79 nM | 
CC1C(OCc2ccc(C(F)(F)F)cc2)CN1C(=O)N1CC[C@@H]2OCC(=O)N[C@@H]2C1 (single isomer, unassigned) [Example 104] | 451 nM | 
O=C1CO[C@H]2CCN(C(=O)N3CCC(OCc4ccccc4Cl)C3)C[C@H]2N1 (stereo partly shown) [Example 93] | 124 nM | 
CC1(OCc2ccc(C(F)(F)F)cc2F)CN(C(=O)N2CC[C@@H]3OCC(=O)N[C@@H]3C2)C1 [Example 111] | 20 nM | 
CC(C)(C)c1csc(CC2CCN(C(=O)N3CC[C@@H]4OCC(=O)N[C@@H]4C3)CC2)n1 (racemic) [Example 3, rac-(4aR,8aS)-6-[4-[(4-tert-Butylthiazol-2-yl)methyl]piperidine-1-carbonyl]-4,4a,5,7,8,8a-hexahydropyrido[4,3-b][1,4]oxazin-3-one] | 66 nM | 
O=C1CO[C@H]2CCN(C(=O)N3CCC(Cc4nc(-c5ccccc5)no4)CC3)C[C@H]2N1 [Example 18] | 892 nM | 
O=C1CO[C@H]2CCN(C(=O)N3CCC(OCc4cccc(Cl)c4)C3)C[C@H]2N1 (stereo partly shown) [Example 94] | 150 nM | 
O=C1CO[C@H]2CCN(C(=O)N3CCC(Cc4ccc(C(F)(F)F)cc4)CC3)C[C@H]2N1 (racemic) [Example 11, rac-(4aR,8aS)-6-[4-[[4-(Trifluoromethyl)phenyl]methyl]piperidine-1-carbonyl]-4,4a,5,7,8,8a-hexahydropyrido[4,3-b][1,4]oxazin-3-one] | 42 nM | 
C[C@H]1O[C@H]2CCN(C(=O)N3CCC(Cc4ccc(C(F)(F)F)cc4)CC3)C[C@H]2NC1=O [Example 67] | 120 nM | 
O=C1CO[C@H]2CCN(C(=O)N3CC(COc4ccc(F)cc4Cl)C3)C[C@H]2N1 [Example 57] | 49 nM | 
CC(C)(C)c1coc(CC2CCN(C(=O)N3CC[C@@H]4OCC(=O)N[C@@H]4C3)CC2)n1 [Example 2] | 46 nM | 
O=C1CO[C@H]2CCN(C(=O)N3CCC(Cc4ccc(C(F)(F)F)cc4)CC3)C[C@@H]2N1 [Example 17] | 268 nM | 
O=C1CO[C@H]2CCN(C(=O)N3CCC(Cc4ccc(C(F)(F)F)cc4)CC3)C[C@@H]2N1 [Example 14] | 191 nM | 
Cc1cc(OC[C@@H]2CCN(C(=O)N3CC[C@@H]4OCC(=O)N[C@@H]4C3)C[C@@H]2C)cnc1C(F)(F)F [Example 231] |  | 5 nM

Continued, values first:

IC50 [1] | IC50 (MAGL) | Structure (SMILES)
10 nM |  | O=C1CO[C@H]2CCN(C(=O)N3CCC(COc4ccc(F)cc4C(F)(F)F)CC3)C[C@H]2N1 [Example 51]
8 nM |  | O=C1CO[C@H]2CCN(C(=O)N3CCC(Oc4ccc(Cl)c(-c5ccc(Cl)cc5)c4)CC3)C[C@H]2N1 [Example 73]
11 nM |  | O=C1CO[C@H]2CCN(C(=O)N3CC(OCc4cc(F)cc(C(F)(F)F)c4)C3)C[C@H]2N1 [Example 101]
4 nM |  | O=C1CO[C@H]2CCN(C(=O)N3CCC(Cc4ccc(Cl)c(F)c4)CC3)C[C@H]2N1 [Example 33]
4 nM |  | O=C1CO[C@H]2CCN(C(=O)N3CCC(COc4ccc(F)cc4Cl)CC3)C[C@H]2N1 [Example 24]
1 nM |  | CC1(COc2ccc(F)cc2Cl)CCN(C(=O)N2CC[C@@H]3OCC(=O)N[C@@H]3C2)CC1 [Example 79, (4aR,8aS)-6-(4-((2-chloro-4-fluorophenoxy)methyl)-4-methylpiperidine-1-carbonyl)hexahydro-2H-pyrido[4,3-b][1,4]oxazin-3(4H)-one]
11 nM |  | Cc1cc(F)ccc1OCC1CCN(C(=O)N2CC[C@@H]3OCC(=O)N[C@@H]3C2)CC1 [Example 61]
19 nM |  | O=C1CO[C@H]2CCN(C(=O)N3CCC(Cc4ccc(Cl)cc4)CC3)C[C@H]2N1 [Example 35]
18 nM |  | O=C1CO[C@H]2CCN(C(=O)N3CC(COc4ccc(F)cc4Cl)C3)C[C@H]2N1 [Example 28]
10 nM |  | CC1C(OCc2ccc(C(F)(F)F)cc2)CN1C(=O)N1CC[C@@H]2OCC(=O)N[C@@H]2C1 (stereo partly shown) [Example 117]
3 nM |  | COc1cc(C(F)(F)F)ccc1COC1CN(C(=O)N2CC[C@@H]3OCC(=O)N[C@@H]3C2)C1 [Example 115]
6 nM |  | O=C1CO[C@H]2CCN(C(=O)N3CCC(Cc4ccc(C(F)(F)F)cc4-c4cn[nH]c4)CC3)C[C@H]2N1 [Example 81]
3 nM |  | C[C@H]1CN(C(=O)N2CC[C@@H]3OCC(=O)N[C@@H]3C2)CC[C@H]1COc1ccc(F)cc1Cl [Example 74]
16 nM |  | O=C1CO[C@H]2CCN(C(=O)N3CC(OCc4ccc(OC(F)(F)F)cc4F)C3)C[C@H]2N1 [Example 77]
8 nM |  | O=C1CO[C@H]2CCN(C(=O)N3CCC(Cc4ccc(C(F)(F)F)cc4C4CC4)CC3)C[C@H]2N1 [Example 95]
11 nM |  | O=C1CO[C@H]2CCN(C(=O)N3CCC(COc4ccc(F)cc4Cl)CC3)C[C@H]2N1 [Example 7]
12 nM |  | O=C1CO[C@H]2CCN(C(=O)N3CCC(Cc4ccc(C(F)(F)F)cc4Cl)CC3)C[C@H]2N1 [Example 99]
5 nM |  | CC1C(OCc2ccc(C(F)(F)F)cc2)CN1C(=O)N1CC[C@@H]2OCC(=O)N[C@@H]2C1 (single isomer, unassigned) [Example 103]
3 nM |  | O=C1CO[C@H]2CCN(C(=O)N3CCC(Cc4ccc(C(F)(F)F)cc4C4CCCC4)CC3)C[C@H]2N1 [Example 58]
10 nM |  | Cc1cc(C(F)(F)F)ccc1CC1CCN(C(=O)N2CC[C@@H]3OCC(=O)N[C@@H]3C2)CC1 [Example 98]
20 nM |  | O=C1CO[C@H]2CCN(C(=O)N3CCC(COc4ccc(F)cc4F)CC3)C[C@H]2N1 [Example 32]
5 nM |  | O=C1CO[C@H]2CCN(C(=O)N3CC(COc4ccc(C(F)(F)F)cc4F)C3)C[C@H]2N1 [Example 47]
5 nM |  | O=C1CO[C@H]2CCN(C(=O)N3CCC(COc4ccc(OC(F)(F)F)cc4Cl)CC3)C[C@H]2N1 [Example 46]
5 nM |  | O=C1CO[C@H]2CCN(C(=O)N3CC(OCc4ccc(C(F)(F)F)c(F)c4)C3)C[C@H]2N1 [Example 114]
8 nM |  | O=C1CO[C@H]2CCN(C(=O)N3CCC(COc4ccc(Cl)cc4F)CC3)C[C@H]2N1 [Example 50]
5 nM |  | O=C1CO[C@H]2CCN(C(=O)N3CC(OCc4ccc(C(F)(F)F)cc4F)C3)C[C@H]2N1 [Example 29]
